How the values were obtained:
full length human TREX1 = molecular target: T1, full length human TREX1 (Homo sapiens, UniProt Q9NSU2); assay: hTREX1 Biochemical Assay (fluorescence, dsDNA substrate degradation); conditions: biochemical, read-out: hTREX1 IC50
T1 construct: N-terminally His-Tev tagged full length human TREX1; made in house; host or cells: E. coli
T1 sequence (Q9NSU2 1-314): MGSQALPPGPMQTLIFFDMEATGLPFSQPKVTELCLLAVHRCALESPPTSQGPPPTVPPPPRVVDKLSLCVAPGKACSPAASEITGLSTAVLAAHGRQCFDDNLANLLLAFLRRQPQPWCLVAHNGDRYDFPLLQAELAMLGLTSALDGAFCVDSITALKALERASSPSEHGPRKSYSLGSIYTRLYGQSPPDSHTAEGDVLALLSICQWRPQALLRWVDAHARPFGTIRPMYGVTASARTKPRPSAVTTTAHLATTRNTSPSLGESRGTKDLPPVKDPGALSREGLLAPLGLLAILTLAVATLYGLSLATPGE
Method in brief: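 Cleavage of 60 nM TEX615/quencher-labelled dsDNA in pH 7.4 Tris buffer with 5 mM MgCl2, 1.0% DMSO, run 18 hours at 25° C, EDTA-quenched; fluorescence read-out.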

full length mouse TREX1 = molecular target: T2, full length mouse TREX1 (Mus musculus, UniProt Q91XB0); assay: mTREX1 Biochemical Assay (fluorescence, dsDNA substrate degradation); conditions: biochemical, read-out: mTREX1 IC50
T2 construct: N-terminally His-Tev tagged full length mouse TREX1; made in house; host or cells: E. coli
T2 sequence (Q91XB0 1-314): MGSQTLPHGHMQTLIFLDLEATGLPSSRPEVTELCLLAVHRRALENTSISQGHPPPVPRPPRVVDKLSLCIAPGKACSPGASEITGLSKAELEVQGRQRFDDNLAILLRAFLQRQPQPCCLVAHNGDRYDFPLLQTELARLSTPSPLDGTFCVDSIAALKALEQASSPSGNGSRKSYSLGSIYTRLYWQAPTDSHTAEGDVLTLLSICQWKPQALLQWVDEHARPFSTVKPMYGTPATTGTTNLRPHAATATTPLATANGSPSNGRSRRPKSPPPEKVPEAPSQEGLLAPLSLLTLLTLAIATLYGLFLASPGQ
Method in brief: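 Reaction run 18 h at 25° C. with 60 nM TEX615/quencher-labelled dsDNA and 6 pM mouse TREX1 in Tris buffer (pH 7.4, 5 mM MgCl2, 1.0% DMSO), enzyme having sat 4 h with compound across 10 concentrations. EDTA quench; substrate degradation measured as fluorescence increase.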

[1] = molecular target: T3, human TREX2 (residues M44-A279) (Homo sapiens, UniProt Q9BQ50); assay: hTREX2 Biochemical Assay (fluorescence, dsDNA substrate degradation); conditions: biochemical selectivity for hTREX1 vs hTREX2
T3 construct: human TREX2 (residues M44-A279, expressed in E. coli); made in house; host or cells: E. coli
T3 sequence (Q9BQ50 44-279 isoform Q9BQ50-1): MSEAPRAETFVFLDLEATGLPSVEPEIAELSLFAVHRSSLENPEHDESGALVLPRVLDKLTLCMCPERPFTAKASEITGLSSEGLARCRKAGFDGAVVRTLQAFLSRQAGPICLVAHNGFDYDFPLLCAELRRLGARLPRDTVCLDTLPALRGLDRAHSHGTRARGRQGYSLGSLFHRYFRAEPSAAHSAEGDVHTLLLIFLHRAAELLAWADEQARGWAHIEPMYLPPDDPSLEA
Method in brief: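 N-His-Tev E. coli enzyme (50 pM) pre-incubated with compound 4 h at 25 °C, then 60 nM TEX615/quencher dsDNA added; 18 h at 25 °C, pH 7.4 Tris buffer with 5 mM MgCl2, 1.0% DMSO. EDTA-quenched; fluorescence 570 ex/615 em from liberated fluorophore, 10-point dose-response.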

Row | SMILES | IC50 (full length human TREX1) [nM] | IC50 (full length mouse TREX1) [nM] | hTREX1 vs hTREX2 selectivity [1]
1 | CC(c1nc(C(=O)Nc2cnoc2)c(O)c(=O)n1C)C(c1cnn(C)c1)c1cc(Cl)ccc1C#N (single isomer, unassigned) [Example 26 D2E1] | > 10 | > 10 | B (B = 25 to 50-fold selective for hTREX1)
2 | Cc1nc(C)c(C(c2ccccc2C#N)C(C)c2nc(C(=O)Nc3cnoc3)c(O)c(=O)n2C)nc1C (single isomer, unassigned) [Example 122 D1E2] | > 10 | > 10 | B (B = 25 to 50-fold selective for hTREX1)
3 | Cc1ccnn1C(c1cc(F)ccc1Cl)C(C)c1nc(C(=O)Nc2cnoc2)c(O)c(=O)n1C (single isomer, unassigned) [Example 145 D1E2] | > 10 | > 10 | A (A = <25 fold selective for hTREX1)
4 | Cc1cc(C)n(C(c2ccccc2Cl)C(C)c2nc(C(=O)Nc3cnoc3)c(O)c(=O)n2C)n1 (single isomer, unassigned) [Example 136 D1E1] | > 10 | > 10 | A (A = <25 fold selective for hTREX1)
5 | Cc1nnc(C(c2ccccc2Cl)C(C)c2nc(C(=O)Nc3cnoc3)c(O)c(=O)n2C)o1 (single isomer, unassigned) [Example 156 D2E2] | 1 to 10 | > 10 | B (B = 25 to 50-fold selective for hTREX1)
6 | CC(c1nc(C(=O)Nc2cnoc2)c(O)c(=O)n1C)C(c1cnccn1)c1ccccc1C#N (single isomer, unassigned) [Example 66 D1E1] | < 1 | < 1 | B (B = 25 to 50-fold selective for hTREX1)
7 | CC(=O)N(C)c1nn(C)cc1C(c1ccccc1C#N)C(C)c1nc(C(=O)Nc2cnoc2)c(O)c(=O)n1C (single isomer, unassigned) [Example 153 D1E2] | > 10 | > 10 | A (A = <25 fold selective for hTREX1)
8 | Cc1cc(C(c2cc(F)ccc2C#N)C(C)c2nc(C(=O)Nc3cnoc3)c(O)c(=O)n2C)nn1C (single isomer, unassigned) [Example 112 D2E2] | > 10 | > 10 | A (A = <25 fold selective for hTREX1)
9 | Cc1nn(C)c(C)c1C(c1cc(F)ccc1Cl)C(C)c1nc(C(=O)Nc2cnoc2)c(O)c(=O)n1C (single isomer, unassigned) [Example 154 D1E2] | > 10 | > 10 | A (A = <25 fold selective for hTREX1)
10 | Cc1cnc(C(c2cc(F)ccc2C#N)C(C)c2nc(C(=O)Nc3cnoc3)c(O)c(=O)n2C)cn1 (single isomer, unassigned) [Example 115 D1E1] | > 10 | > 10 | A (A = <25 fold selective for hTREX1)
11 | CC(c1nc(C(=O)Nc2cnoc2)c(O)c(=O)n1C)C(c1cnn(C)c1)c1ccc(Cl)cc1C#N (single isomer, unassigned) [Example 27 D1E2] | > 10 | > 10 | C (C = >50 fold selective for hTREX1)
12 | Cc1nccc(C(c2ccccc2C#N)C(C)c2nc(C(=O)Nc3cnoc3)c(O)c(=O)n2C)n1 (single isomer, unassigned) [Example 83 D1E2] | > 10 | > 10 | A (A = <25 fold selective for hTREX1)
13 | Cc1cc(C)n(C(c2ccccc2C#N)C(C)c2nc(C(=O)Nc3cnoc3)c(O)c(=O)n2C)n1 (single isomer, unassigned) [Example 137 D1E2] | > 10 | > 10 | A (A = <25 fold selective for hTREX1)
14 | Cc1ncc(C(c2cc(F)ccc2C#N)C(C)c2nc(C(=O)Nc3cnoc3)c(O)c(=O)n2C)nc1C (single isomer, unassigned) [Example 124 D1E1] | > 10 | > 10 | A (A = <25 fold selective for hTREX1)
15 | COCCn1ncc(C(c2cc(F)ccc2C#N)C(C)c2nc(C(=O)Nc3cnoc3)c(O)c(=O)n2C)c1C (single isomer, unassigned) [Example 104 D2E2] | 1 to 10 | > 10 | B (B = 25 to 50-fold selective for hTREX1)
16 | CC(c1nc(C(=O)Nc2cnoc2)c(O)c(=O)n1C)C(c1nnn(C)n1)c1ccccc1C#N (single isomer, unassigned) [Example 79 D1E1] | > 10 | > 10 | A (A = <25 fold selective for hTREX1)
17 | CCn1cc(C(c2cc(F)ccc2Cl)C(C)c2nc(C(=O)Nc3cnoc3)c(O)c(=O)n2C)cn1 (single isomer, unassigned) [Example 60 D2E1] | > 10 | > 10 | A (A = <25 fold selective for hTREX1)
18 | CC(c1nc(C(=O)Nc2cnoc2)c(O)c(=O)n1C)C(c1ccccc1C#N)c1nnnn1C (single isomer, unassigned) [Example 131 D1E1] | > 10 | > 10 | A (A = <25 fold selective for hTREX1)
19 | Cc1ncc(C(c2ccccc2C#N)C(C)c2nc(C(=O)Nc3cnoc3)c(O)c(=O)n2C)nc1C (single isomer, unassigned) [Example 81 D1E1] | > 10 | > 10 | A (A = <25 fold selective for hTREX1)

Next, values leading:

Row | IC50 (full length human TREX1) [nM] | IC50 (full length mouse TREX1) [nM] | hTREX1 vs hTREX2 selectivity [1] | SMILES
20 | > 10 | > 10 | A (A = <25 fold selective for hTREX1) | Cc1ncc(C(c2ccccc2Cl)C(C)c2nc(C(=O)Nc3cnoc3)c(O)c(=O)n2C)cn1 (single isomer, unassigned) [Example 44 D1E1]
21 | < 1 | 1 to 10 | C (C = >50 fold selective for hTREX1) | COCCn1cc(C(c2cc(F)c(F)cc2Cl)C(C)c2nc(C(=O)Nc3cnoc3)c(O)c(=O)n2C)cn1 (single isomer, unassigned) [Example 73 D1E1]
22 | > 10 | > 10 | A (A = <25 fold selective for hTREX1) | CC(c1nc(C(=O)Nc2cnoc2)c(O)c(=O)n1C)C(c1ccccc1)c1cccnc1C#N (single isomer, unassigned) [Example 155 D2E2]
23 | > 10 | > 10 | A (A = <25 fold selective for hTREX1) | CC(c1nc(C(=O)Nc2cnoc2)c(O)c(=O)n1C)C(c1nnn(C)n1)c1ccccc1C#N (single isomer, unassigned) [Example 79 D2E2]
24 | 1 to 10 | > 10 | C (C = >50 fold selective for hTREX1) | CC(c1nc(C(=O)Nc2cnoc2)c(O)c(=O)n1C)C(c1cn(C)cn1)c1ccccc1C#N (single isomer, unassigned) [Example 39 D2E2]
25 | 1 to 10 | > 10 | A (A = <25 fold selective for hTREX1) | CC(c1nc(C(=O)Nc2cnoc2)c(O)c(=O)n1C)C(c1cnn(CC2COC2)c1)c1ccccc1Cl (single isomer, unassigned) [Example 88 D1E2]
26 | 1 to 10 | > 10 | C (C = >50 fold selective for hTREX1) | Cc1nn(C)cc1C(c1cc(F)ccc1C#N)C(C)c1nc(C(=O)Nc2cnoc2)c(O)c(=O)n1C (single isomer, unassigned) [Example 57 D2E1]
